# Reference: patent publication US9119401B2, “Plant glutamine synthetase inhibitors and methods for their identification” (priority 2012, dated 2015)
# Read-outs that look alike come from different tables or passages of the source.
# Experiments:
# [1] = system: recombinant glutamine synthetase from Lotus japonicas; assay: Biosynthetic assay for plant glutamine synthetase; type: biochemical; conditions: for effect on plant glutamate synthetase activity (in words): text summary of Table 5, 40 μg/ml
# Experimental: The biosynthetic assay for plant glutamine synthetase was carried out as follows. This assay uses following solutions: reaction buffer (pH 6.8, 75 mM HEPES, 300 mM L-glutamic acid, 11 mM NH4Cl, 40 mM MgCl2), recombinant […] GS from Lotus japonicas (Betti et al., 2006) working solution (pH 6.8, 50 mM ATP), reaction quenching and color formation solution (12% w/v L-ascorbic acid in 1 N HCl solution and 2% w/v sodium molybdate in DD H2O), color fixing solution (1% sodium citrate tribasic dehydrate in 1% acetic acid in DD H2O), and blank solution (420 mM EDTA solution).
# Commercial herbicide (i.e., glufosinate or DL-Phosphinotricin) was used a positive control. EDTA was used as a negative control. In this experiment, we used the active ingredient(s) in the extracts from Burkholderia Spp. (internal labeled as A396 strain or MBI-206 and/or MBI-010).
# Burkholderia A396 = type: cell-based, Burkholderia sp. A396; conditions: for Susceptible: Muller-Hinton medium, 72-hour incubation at 25° C.; for Susceptibility of Burkholderia A396 (in words): Table 2
# Experimental: Antibiotic susceptibility of Burkholderia A396 is tested using antibiotic disks on Muller-Hinton medium as described in PML Microbiological's technical data sheet #535.
# B. cepacia isolates = conditions: 366 B. cepacia isolates, Pitt et al., 1996; cited from earlier work
# [2] = system: B. cepacia complex strains isolated from cystic fibrosis patients; conditions: of 2,621 B. cepacia complex strains, Zhou et al., 2007; cited from earlier work
# [3] = Table 5, pure compounds of MBI-206 and fractions, 40 μg/ml
compound,measurement,setting,value
CP(=O)(O)CCC(N)C(=O)O (racemic) [DL-Phosphinotricin],GS inhibition (%) Plate 1,"[1]; Study #2 (MBI-206), 100 μg/ml",68.8%
same,GS inhibition (%) Plate 2,"[1]; Study #2 (MBI-206), 100 μg/ml",71.5%
same,GS inhibition (%),"[1]; Table 5, pure compounds of MBI-206 and fractions, 100 μg/ml",70.8%
same,GS inhibition (%),"[1]; study #1 (MBI-010), 200 μg/ml final concentration",70%
same,GS inhibition (%),"[1]; study #1 (MBI-010), 200 μg/ml final concentration, listed as DL-phosphinotricin",about 70%
CC1(C)S[C@@H]2[C@H](NC(=O)[C@H](N)c3ccccc3)C(=O)N2[C@H]1C(=O)O [Ampicillin],Susceptible,Burkholderia A396; disk 10 ug,−
CO/N=C(\C(=O)N[C@@H]1C(=O)N2C(C(=O)O)=C(COC(N)=O)CS[C@H]12)c1ccco1 [Cefuroxime],Susceptible,Burkholderia A396; disk 30 ug,−
same,antibiotic resistance of isolates (in words),B. cepacia isolates,most of them are resistant
O=C(N[C@H](CO)[C@H](O)c1ccc([N+](=O)[O-])cc1)C(Cl)Cl [Chloramphenicol],Susceptibility of Burkholderia A396 (in words),Burkholderia A396,susceptible
same,Susceptible,Burkholderia A396; disk 30 ug,++
same,strains resistant,[2],85%
same,strains susceptible,[2],15%
O=C(O)c1cn(C2CC2)c2cc(N3CCNCC3)c(F)cc2c1=O [Ciprofloxacin],Susceptibility of Burkholderia A396 (in words),Burkholderia A396,susceptible
same,Susceptible,Burkholderia A396; disk 5 ug,++
same,strains susceptible,[2],5%
same,antibiotic resistance of isolates (in words),B. cepacia isolates,most of them are resistant
CC[C@H]1OC(=O)[C@H](C)[C@@H](O[C@H]2C[C@@](C)(OC)[C@@H](O)[C@H](C)O2)[C@H](C)[C@@H](O[C@@H]2O[C@H](C)C[C@H](N(C)C)[C@H]2O)[C@](C)(O)C[C@@H](C)C(=O)[C@H](C)[C@@H](O)[C@]1(C)O [Erythromycin],Susceptible,Burkholderia A396; disk 15 ug,−
"C/C=C1\NC(=O)[C@H]2CSSCC/C=C/[C@H](CC(=O)N[C@H](C(C)C)C(=O)N2)OC(=O)[C@H](C(C)C)NC1=O [FR901228 (iii), FR901228]",GS inhibition (%),[1]; [3],57%
same,effect on plant glutamate synthetase activity (in words),[1],inhibitory effect
C[C@@H](O)[C@H]1C(=O)N2C(C(=O)O)=C(SCCN=CN)C[C@H]12 [Imipenem],Susceptible,Burkholderia A396; disk 10 ug,+++
NC[C@H]1O[C@H](O[C@H]2[C@H](O)[C@@H](O[C@H]3O[C@H](CO)[C@@H](O)[C@H](N)[C@H]3O)[C@H](N)C[C@@H]2N)[C@H](O)[C@@H](O)[C@@H]1O [Kanamycin],Susceptible,Burkholderia A396; disk 30 ug,+++
CN(C)[C@@H]1C(O)=C(C(N)=O)C(=O)[C@@]2(O)C(O)=C3C(=O)c4c(O)cccc4[C@@](C)(O)[C@H]3[C@H](O)[C@@H]12 [Oxytetracycline],Susceptible,Burkholderia A396; disk 30 ug,−
CCN1CCN(C(=O)N[C@@H](C(=O)N[C@@H]2C(=O)N3[C@@H]2SC(C)(C)[C@@H]3C(=O)O)c2ccccc2)C(=O)C1=O [Piperacillin],Susceptibility of Burkholderia A396 (in words),Burkholderia A396,susceptible
same,Susceptible,Burkholderia A396; disk 100 ug,+++
[H]/N=C(/N)N[C@H]1[C@H](O)[C@@H](O)[C@H](O[C@@H]2O[C@@H](C)[C@](O)(C=O)[C@H]2O[C@@H]2O[C@@H](CO)[C@H](O)[C@@H](O)[C@@H]2NC)[C@@H](N/C(N)=N\[H])[C@@H]1O [Streptomycin],Susceptible,Burkholderia A396; disk 10 ug,−
"COC(=O)c1nc(CC(C)C)oc1-c1c[nH]c2ccccc12 [Templazole A (i), templazole A]",GS inhibition (%),[1]; [3],30%
same,effect on plant glutamate synthetase activity (in words),[1],inhibitory effect
CN(C)[C@@H]1C(O)=C(C(N)=O)C(=O)[C@@]2(O)C(O)=C3C(=O)c4c(O)cccc4[C@@](C)(O)[C@H]3C[C@@H]12 [Tetracycline],Susceptible,Burkholderia A396; disk 30 ug,−
Gentamicin,Susceptible,Burkholderia A396; disk 10 ug,−
Penicillin,Susceptible,Burkholderia A396; disk 10 ug,−
templazole B [Templazole B (ii)],GS inhibition (%),[1]; [3],46%
same,effect on plant glutamate synthetase activity (in words),[1],inhibitory effect
